Common to all, as to assay type: cell-based
One assay deals with T1, human TLR8 (Homo sapiens, UniProt Q9NR97).
T1 construct: host or cells: HEK-Blue cells (HEK293-derived reporter line)
T1 sequence (Q9NR97 27-1041): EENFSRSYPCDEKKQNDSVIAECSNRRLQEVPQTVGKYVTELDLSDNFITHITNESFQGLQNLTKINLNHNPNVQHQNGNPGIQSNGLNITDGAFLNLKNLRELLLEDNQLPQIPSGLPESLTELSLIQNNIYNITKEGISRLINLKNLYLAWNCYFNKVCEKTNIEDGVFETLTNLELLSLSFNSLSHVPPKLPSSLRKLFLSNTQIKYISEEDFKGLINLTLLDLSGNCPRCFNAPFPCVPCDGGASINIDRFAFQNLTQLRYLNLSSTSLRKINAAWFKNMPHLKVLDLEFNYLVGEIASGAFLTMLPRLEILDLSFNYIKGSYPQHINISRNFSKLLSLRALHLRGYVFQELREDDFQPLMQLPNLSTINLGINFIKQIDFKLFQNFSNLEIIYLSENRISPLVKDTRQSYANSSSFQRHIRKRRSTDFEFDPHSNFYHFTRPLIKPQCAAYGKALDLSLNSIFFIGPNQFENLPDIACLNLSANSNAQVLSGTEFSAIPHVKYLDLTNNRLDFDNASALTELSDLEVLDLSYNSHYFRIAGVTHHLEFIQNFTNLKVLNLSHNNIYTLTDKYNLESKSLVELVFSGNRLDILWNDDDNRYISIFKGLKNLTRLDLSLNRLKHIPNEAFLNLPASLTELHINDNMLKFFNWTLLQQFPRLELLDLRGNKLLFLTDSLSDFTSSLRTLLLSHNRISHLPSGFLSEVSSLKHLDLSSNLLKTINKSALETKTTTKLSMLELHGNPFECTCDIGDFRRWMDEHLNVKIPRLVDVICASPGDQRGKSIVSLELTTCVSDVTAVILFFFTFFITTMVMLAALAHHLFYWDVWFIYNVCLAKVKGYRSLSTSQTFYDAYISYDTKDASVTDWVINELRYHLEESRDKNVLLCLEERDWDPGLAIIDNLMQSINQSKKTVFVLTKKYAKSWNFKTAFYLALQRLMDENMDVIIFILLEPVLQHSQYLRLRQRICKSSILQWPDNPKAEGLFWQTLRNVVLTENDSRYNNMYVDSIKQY
Put plainly: TLR8 inhibition reporter assay (HEK-Blue cells, SEAP reporter, R848 stimulation). The settings on record: HEK-Blue cells overexpressing human TLR8, SEAP reporter, R848 15.9 μM. In outline: (§1)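 Percent inhibition of agonist-induced SEAP secretion in HEK-Blue cells after 22 h at 37 °C. Stimuli: 7.5 μM gardiquimod, 15.9 μM R848, 5 nM ODN2006 for TLR7, TLR8 and TLR9, added after 30 min compound exposure over a 0.05 nM–50 μM range.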
Background: A reporter such as luciferase makes a cellular process visible.

The target in another assay is T2, human TLR7 (Homo sapiens, UniProt Q9NYK1).
T2 construct: host or cells: HEK-Blue cells (HEK293-derived reporter line)
T2 sequence (Q9NYK1 27-1049): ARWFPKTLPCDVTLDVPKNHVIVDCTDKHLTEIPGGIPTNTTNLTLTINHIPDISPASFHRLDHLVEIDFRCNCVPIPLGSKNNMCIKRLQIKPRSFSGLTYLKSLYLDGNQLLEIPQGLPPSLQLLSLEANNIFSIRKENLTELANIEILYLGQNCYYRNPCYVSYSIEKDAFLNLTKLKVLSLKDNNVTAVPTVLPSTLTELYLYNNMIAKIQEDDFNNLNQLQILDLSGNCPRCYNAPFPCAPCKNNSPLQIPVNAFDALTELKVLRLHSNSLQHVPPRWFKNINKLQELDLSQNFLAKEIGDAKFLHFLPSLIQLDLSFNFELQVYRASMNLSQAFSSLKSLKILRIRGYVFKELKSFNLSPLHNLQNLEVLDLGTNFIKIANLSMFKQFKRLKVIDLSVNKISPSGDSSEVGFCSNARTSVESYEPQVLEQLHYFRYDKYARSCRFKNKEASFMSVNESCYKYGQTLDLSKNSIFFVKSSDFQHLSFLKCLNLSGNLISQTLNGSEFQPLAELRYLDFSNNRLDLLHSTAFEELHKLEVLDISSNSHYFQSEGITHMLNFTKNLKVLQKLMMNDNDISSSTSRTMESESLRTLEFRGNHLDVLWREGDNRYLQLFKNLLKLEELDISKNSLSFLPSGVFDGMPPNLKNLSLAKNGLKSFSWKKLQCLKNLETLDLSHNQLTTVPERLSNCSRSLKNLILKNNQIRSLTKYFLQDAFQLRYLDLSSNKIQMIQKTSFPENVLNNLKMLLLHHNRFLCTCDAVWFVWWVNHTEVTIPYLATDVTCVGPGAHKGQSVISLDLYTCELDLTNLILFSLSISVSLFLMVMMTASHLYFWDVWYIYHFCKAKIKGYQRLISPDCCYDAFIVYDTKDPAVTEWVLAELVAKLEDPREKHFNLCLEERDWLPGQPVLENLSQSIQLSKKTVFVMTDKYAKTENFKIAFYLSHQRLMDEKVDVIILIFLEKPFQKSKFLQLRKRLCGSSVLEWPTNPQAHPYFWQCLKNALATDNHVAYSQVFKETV
The assay is described as follows: TLR7 inhibition reporter assay (HEK-Blue cells, SEAP reporter, gardiquimod stimulation). As to conditions: HEK-Blue cells overexpressing human TLR7, SEAP reporter, gardiquimod 7.5 μM. The gist of the method: as §1

Another assay concerns the target T3, human TLR9 (Homo sapiens, UniProt Q9NR96).
T3 construct: host or cells: HEK-Blue cells (HEK293-derived reporter line)
T3 sequence (Q9NR96 26-1032): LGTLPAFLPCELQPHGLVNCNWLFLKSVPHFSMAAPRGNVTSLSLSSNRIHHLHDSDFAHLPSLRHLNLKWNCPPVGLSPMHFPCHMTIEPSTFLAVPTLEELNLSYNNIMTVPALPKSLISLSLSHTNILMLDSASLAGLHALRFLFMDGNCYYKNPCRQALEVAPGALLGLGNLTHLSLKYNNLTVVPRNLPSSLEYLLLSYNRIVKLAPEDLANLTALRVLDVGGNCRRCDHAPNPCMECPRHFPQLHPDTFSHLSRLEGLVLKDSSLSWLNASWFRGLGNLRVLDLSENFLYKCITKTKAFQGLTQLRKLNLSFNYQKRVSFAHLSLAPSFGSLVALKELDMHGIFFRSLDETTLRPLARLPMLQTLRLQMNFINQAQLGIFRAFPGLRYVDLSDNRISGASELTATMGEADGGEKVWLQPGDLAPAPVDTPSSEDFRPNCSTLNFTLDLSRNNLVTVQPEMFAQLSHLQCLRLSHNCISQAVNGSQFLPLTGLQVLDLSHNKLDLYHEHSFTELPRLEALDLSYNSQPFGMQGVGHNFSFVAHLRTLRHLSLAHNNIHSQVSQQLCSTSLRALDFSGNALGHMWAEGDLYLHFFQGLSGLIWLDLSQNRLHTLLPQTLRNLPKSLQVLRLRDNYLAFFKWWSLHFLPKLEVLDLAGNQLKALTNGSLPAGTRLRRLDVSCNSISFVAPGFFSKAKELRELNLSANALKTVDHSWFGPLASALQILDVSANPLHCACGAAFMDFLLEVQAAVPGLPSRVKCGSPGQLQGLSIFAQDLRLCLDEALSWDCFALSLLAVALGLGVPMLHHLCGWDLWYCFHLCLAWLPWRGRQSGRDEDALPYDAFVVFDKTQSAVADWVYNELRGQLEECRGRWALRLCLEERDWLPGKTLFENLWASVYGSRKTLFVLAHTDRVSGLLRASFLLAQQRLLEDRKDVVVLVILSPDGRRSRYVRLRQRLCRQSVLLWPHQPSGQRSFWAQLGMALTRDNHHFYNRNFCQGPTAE
The assay is described as follows: TLR9 inhibition reporter assay (HEK-Blue cells, SEAP reporter, ODN2006 stimulation). The settings on record: HEK-Blue cells overexpressing human TLR9, SEAP reporter, ODN2006 5 nM. In outline: as §1

pIC50: −log10 of the molar value.

Drawing on patent US11739098B2 (BRISTOL-MYERS SQUIBB COMPANY, priority 2017, dated 2023), this text covers IC50 for ten compounds.

Regarding `Cc1cc(-c2[nH]c3ccc(C4CCN(CC(C)(C)O)CC4)cc3c2C(C)C)c2ccccc2n1` [Example 752, 1-(4-(3-isopropyl-2-(2-methylquinolin-4-yl)-1H-indol-5-yl)piperidin-1-yl)-2-methylpropan-2-ol], the negative logarithm of the IC50 (pIC50) at human TLR8 is more than 7.00; against human TLR7 it was more than 7.00; against human TLR9, 4.30 to 6.00.
`Cc1nc2cc(-c3[nH]c4ccc(C5CCN(CC(C)(C)O)CC5)cc4c3C(C)C)ccn2n1` [Example 753, 1-(4-(3-isopropyl-2-(2-methyl-[1,2,4]triazolo[1,5-a]pyridin-7-yl)-1H-indol-5-yl)piperidin-1-yl)-2-methylpropan-2-ol]: the pIC50 at human TLR8 was 6.00 to 7.00; against human TLR7 it was more than 7.00; on human TLR9, 6.00 to 7.00.
On to `COCC(CO)N1CCC(c2ccc3[nH]c(-c4cc(C)n5ccnc5c4)c(C(C)C)c3c2)CC1` (stereo not drawn) [Example 754, 2-(4-(3-isopropyl-2-(5-methylimidazo[1,2-a]pyridin-7-yl)-1H-indol-5-yl)piperidin-1-yl)-3-methoxypropan-1-ol], for which the figures for the pIC50 at human TLR8, against human TLR7 and against human TLR9 were 6.00 to 7.00, 4.30 to 6.00 and 6.00 to 7.00, respectively.
Take `Cc1cc(-c2[nH]c3ccc(C4CCN(C(CO)CO)CC4)cc3c2C(C)C)cc2nccn12` [Example 755, 2-(4-(3-isopropyl-2-(5-methylimidazo[1,2-a]pyridin-7-yl)-1H-indol-5-yl)piperidin-1-yl)propane-1,3-diol]: the pIC50 against human TLR8 was 6.00 to 7.00; against human TLR7 it was 6.00 to 7.00; on human TLR9, more than 7.00.
With `Cc1cc(-c2[nH]c3ccc(C4CCN(CC(C)(C)O)CC4)cc3c2C(C)C)cc2ncnn12` [Example 756, 1-(4-(3-isopropyl-2-(5-methyl-[1,2,4]triazolo[1,5-a]pyridin-7-yl)-1H-indol-5-yl)piperidin-1-yl)-2-methylpropan-2-ol], the values for the pIC50 on human TLR8, on human TLR7 and at human TLR9 were more than 7.00, more than 7.00 and 4.30 to 6.00, respectively.
As for `Cc1cc(-c2[nH]c3ccc(C4CCN(CC(C)(C)O)CC4)cc3c2C(C)C)cc2nccn12` [Example 757, 1-(4-(3-isopropyl-2-(5-methylimidazo[1,2-a]pyridin-7-yl)-1H-indol-5-yl)piperidin-1-yl)-2-methylpropan-2-ol], the negative-log IC50 (pIC50) was 6.00 to 7.00 against human TLR8, 4.30 to 6.00 against human TLR7 and 6.00 to 7.00 against human TLR9.
`COc1cc(-c2[nH]c3ccc(C4CCN(CC(C)(C)O)CC4)cc3c2C(C)C)cc2nccn12` [Example 758, 1-(4-(3-isopropyl-2-(5-methoxyimidazo[1,2-a]pyridin-7-yl)-1H-indol-5-yl)piperidin-1-yl)-2-methylpropan-2-ol]: the pIC50 was more than 7.00 at human TLR8, 6.00 to 7.00 at human TLR7 and 6.00 to 7.00 on human TLR9.
Regarding `CC(C)c1c(-c2cnc3ccnn3c2)[nH]c2ccc(C3CCN(CC(C)(C)O)CC3)cc12` [Example 759, 1-(4-(3-isopropyl-2-(pyrazolo[1,5-a]pyrimidin-6-yl)-1H-indol-5-yl)piperidin-1-yl)-2-methylpropan-2-ol], the negative-log IC50 (pIC50) on human TLR8 is 4.30 to 6.00; against human TLR7 it was 6.00 to 7.00; on human TLR9, 4.30 to 6.00.
Regarding `CC(C)c1c(-c2cccn3ncnc23)[nH]c2ccc(C3CCN(CC(C)(C)O)CC3)cc12` [Example 760, 1-(4-(2-([1,2,4]triazolo[1,5-a]pyridin-8-yl)-3-isopropyl-1H-indol-5-yl)piperidin-1-yl)-2-methylpropan-2-ol], the negative logarithm of the IC50 (pIC50) against human TLR8 is more than 7.00; on human TLR7, 6.00 to 7.00; at human TLR9, 4.30 to 6.00.
Taken in the same sequence, the figures for `CC(C)c1c(-c2cnc3nccn3c2)[nH]c2ccc(C3CCN(CC(C)(C)O)CC3)cc12` [Example 761, 1-(4-(2-(imidazo[1,2-a]pyrimidin-6-yl)-3-isopropyl-1H-indol-5-yl)piperidin-1-yl)-2-methylpropan-2-ol] were 6.00 to 7.00, more than 7.00 and 6.00 to 7.00.

In general, pIC50 refers to the IC50 on a negative log10 scale, so that one unit is a factor of ten. High values mean a low IC50, low ones a high IC50.
